Key:
[1] = Acute toxicity in mice; format: in vivo; conditions: in vivo, po; mouse, esophageal tube, 1% methyl cellulose; deaths within 14 days; LITCHFIELD and WILCOXON
Procedure: (§1) were tested with regard to analgesic activity in the rat, analgesic activity in the mouse, and acute toxicity in the mouse:
(§2) 3. Acute Toxicity in Mice
(§3) The acute toxicity was determined in Chbb:NMRI (SPF)-mice of both sexes, having an average body weight of 20 grams. The test compounds were administered as a trituration in 1% methyl cellulose (0.2 ml/10 gm of animal) by means of an esophageal tube. The calculation of the LD50 values was effected according to the method of LITCHFIELD and WILCOXON [J. Pharmacol. Exp. Ther., 96, 99 (1949)], based upon the percentage of animals which died within 14 days after administration of different doses.

[2] = test system: Pain of Inflammation on the Back Paw of the Rat; experiment: Activity against the pain of inflammation on the back paw of the rat (RANDALL-SELITTO); format: in vivo, rat (male Chbb:THOM-rats); conditions: po, 1.5 h, dose at which pain threshold rises by 50% vs controls, esophageal tube, 1% methyl cellulose, 90 minutes after phlogistic, 90 minutes before determination, linear regression
Procedure: as §1
1. Activity against the Pain of Inflammation on the Back Paw of the Rat
The activity against the pain caused by inflammation was tested according to the method of RANDALL-SELITTO [Arch. Int. Pharmacodyn., 111, 409 (1957)]. Male Chbb:THOM-rats having body weights of from 100 to 130 grams received a subplantar injection of 0.1 ml of a suspension of 1,12 g of dry yeast in 18.9 ml of a 5.5% glucose solution into a back paw.
At 90 minutes after injection of the phlogistic, that is, ninety minutes before determination of the pain threshold, the animals received various doses of the test substances as a trituration in 1% methyl cellulose (1 ml/100 gm of animal) through an esophageal tube. Control animals received corresponding volumes of the vehicle. The pain threshold was determined in the rat in terms of the grams of bearing pressure on a paw, based on the weight of the animal.
From the pain threshold, measured according to the various doses of the test substance, and with linear regression analysis according to LINDER [Statistische Methoden, 4th ed., pp. 148-162, Birkhauser, Basel, 1964] an ED50 was determined. The ED50 dose is one in which the pain threshold rises by 50%, as compared to the controls.

[3] = test system: Sensitivity of the Mouse in the Hot Plate Test; experiment: Activity against the sensitivity of the mouse in the hot plate test (CHEN and BECKMAN); format: in vivo, mouse (male Chbb:NMRI (SPF)-mice); conditions: po, dose increasing time of reaction by 100%, hot plate 52° C., esophageal tube, 1% methyl cellulose, linear regression
Procedure: as §1
2. Activity against the Sensitivity of the Mouse in the Hot Plate Test
The test was performed according to the method described by CHEN and BECKMAN [Science, 113, 631 (1951)] in male Chbb:NMRI (SPF)-mice with an average weight of 20 grams.
The test substances were administered as trituration in 1% methyl cellulose (0.1 ml/10 gm of mouse) by means of an esophageal tube. Before treatment with the test substances, the animals were twice put on the hot plate at intervals of 30 to 120 minutes, whereby their individual times of reaction were measured. After treatment with a test substance, the times of reaction of the animals were again measured in intervals of 30 to 120 minutes.
From the average maximum increase of the time of reaction obtained after treatment with different doses, and after linear regression analysis according to LINDER, an ED100 dose was calculated. The ED100 dose is one which increased the time of reaction by 100%.

[4] = test system: Chbb:NMRI (SPF)-mice; experiment: Acute toxicity in mice; format: in vivo; conditions: dose 1000 mg/kg (footnote * of Table 3), mouse, esophageal tube, within 14 days
Procedure: as §1, §2, §3

Compound | LD50 at 336 h [1] [mg/kg] | ED50 [2] [mg/kg] | ED100 [3] [mg/kg] | animals died after administration of this dose [4]
Cc1nn(C)c2c1N(C)c1ncccc1N(C)C2=O [D, 1,4,9,10-tetrahydro-1,3,4,9-tetramethyl-pyrazolo[4,3-e]pyrido[3,2-b][1,4]diazepin-10-one] | 225 | 7.4 | – | –
CCN1C(=O)c2c(c(C)nn2C)Nc2ncccc21 [C, 1,3-dimethyl-9-ethyl-1,4,9,10-tetrahydro-pyrazolo[4,3-e]pyrido[3,2-b][1,4]diazepin-10-one] | 171 | 28 | 28 | –
Cc1nn(C)c2c1Nc1ncccc1N(C)C2=O [B, 1,4,9,10-tetrahydro-1,3,9-trimethyl-pyrazolo[4,3-e]pyrido[3,2-b][1,4]diazepin-10-one] | 175 | 11 | 30 | –
CCN1C(=O)c2c(c(C)nn2C)N(C)c2ncccc21 [E, 9-ethyl-1,4,9,10-tetrahydro-1,3,4-trimethyl-pyrazolo[4,3-e]pyrido[3,2-b][1,4]diazepin-10-one] | 202 | 5.9 | – | –
CCCCN1C(=O)c2c(c(C)nn2C)Nc2ncccc21 [F, 9-(n-butyl)-1,3-dimethyl-1,4,9,10-tetrahydro-pyrazolo[4,3-e]pyrido[3,2-b][1,4]diazepin-10-one] | > 1000 | 139 | 87 | 1 out of 8
Cc1nn(C)c2c1Nc1ncccc1NC2=O [A, 1,3-dimethyl-1,4,9,10-tetrahydro-pyrazolo[4,3-e]pyrido[3,2-b][1,4]diazepin-10-one] | 152 | 26 | 15 | –
